Data as given in patent US10808283B2, “Methods and kits for the molecular subtyping of tumors” (BioNTech Diagnostics GmbH, priority 2013, dated 2020).

Experiments:
[1] = FinHER clinical trial; docetaxel compared with vinorelbine; cited from earlier work
[2] = test system: HER2-positive tumor patients; assay: Kaplan Meier analysis of overall survival, HER2-positive tumor patients; format: in vivo, human; details: for HR, overall survival: docetaxel vs vinorelbine; for overall survival: 5 year time point
Excerpt: FIG. 14 depicts a Kaplan Meier analysis of the overall survival of HER2-positive tumor patients. […] B: Similar results are shown for tumors subtyped by IHC (86% vs. 89%, HR 1.175; CI 0.518-2.663).
(§1) For the evaluation of breast tumors, 855 out of 1010 breast cancer patients of the FinHER study (Joensuu et al. (2006), N Engl J Med, 354:809-820) could be used. The mean cut-off values (given as 40-ΔCT values) were as follows: HER2: 38; ESR1: 34; PGR: 30,2; Ki67: 31.7; and RACGAP1: 34.2. The cut-off values for HER2 and ESR1 were determined based on evaluation of previous studies (Koutras et al. (2008), Brit. J. of Cane., 99:1775-1785; Pentheroudakis et al. (2009), Breast Cancer Res Treat 2009, 116:131-143) using 268 samples and were applied to the FinHER study (proportional hazards model validation). CALM2 served as reference gene.
(§2) FIGS. 10 to 19 depict Kaplan-Meier survival curves for different tumor subtypes (luminal B, HER2-positive, luminal A, and triple-negative breast cancer [TNBC]) treated with different chemotherapy agents (docetaxel or vinorelbine). Subytpes defined by RT-qPCR according to the present invention are shown in panel A, whereas subtypes defined by IHC are shown in panel B. Dotted lines mark the 5 year time point for outcome calculations.

[3] = test system: patients with luminal B tumors; assay: Kaplan Meier analysis of overall survival, FinHER patients with luminal B tumors; format: in vivo, human; design: overall survival: concentration or dose not given beside the values; details: for HR, overall survival: docetaxel vs vinorelbine
Excerpt: FIG. 10 depicts a Kaplan Meier analysis of the overall survival of patients with luminal B tumors. […] B: en the tumor subtype is defined by IHC, the benefit of docetaxel for luminal B patients cannot be shown (95% vs. 92%, HR 0.617; CI 0.235-1.623).
FIG. 11 depicts a Kaplan Meier analysis of the overall survival of patients with luminal B tumors, adjusted for tumor histologic type by Cox Regression as specified in the SAP. A: The prediction of the docetaxel benefit by RT-qPCR kit remains significant (97% vs. 88%, HR 0.232; CI 0.087-0.624). B: Subtyping by IHC is not predictive for a docetaxel benefit (96% vs. 92%, HR 0.510; CI 0.184-1.414).
as §1, §2

[4] = test system: luminal A tumor patients; assay: Kaplan Meier analysis of distant metastasis free survival, luminal A tumor patients; format: in vivo, human; details: for HR, DMFS: docetaxel vs vinorelbine; for distant metastasis free survival: 5 year time point
Procedure: FIG. 17 depicts a Kaplan Meier analysis of distant metastasis free survival of luminal A tumor patients.
as §1, §2

[5] = test system: TNBC tumor patients; assay: Kaplan Meier analysis of overall survival, TNBC tumor patients; format: in vivo, human; details: for HR, overall survival: docetaxel vs vinorelbine; for overall survival: 5 year time point
Excerpt: FIG. 18 depicts a Kaplan Meier analysis of overall survival of TNBC tumor patients. […] B: When defined by IHC, TNBC patients show a weak, yet non-significant trend towards longer overall survival (88% vs. 80%, HR 0.552; CI 0.207-1.472).
as §1, §2

[6] = test system: luminal A tumors; assay: Kaplan Meier analysis of overall survival, luminal A tumors; format: in vivo, human; details: for HR, overall survival: docetaxel vs vinorelbine; for overall survival: 5 year time point
Excerpt: FIG. 16 depicts a Kaplan Meier analysis of overall survival of luminal A tumors. […] B: By contrast, when defined by IHC, luminal A patients show a weak, yet non-significant trend towards longer overall survival (97 vs. 93% HR 0.443; CI 0.114-1.716) when treated with docetaxel as compared to vinorelbine.
as §1, §2

[7] = test system: luminal B tumor patients; assay: Kaplan Meier analysis of distant metastasis free survival (DMFS), luminal B tumor patients; format: in vivo, human; details: for distant metastasis free survival: adjusted for number of metastatic lymph nodes, tumor size and histologic type, 5 years; for distant metastasis free survival (DMFS): 5 year time point
Excerpt: FIG. 12 depicts a Kaplan Meier analysis of distant metastasis free survival (DMFS) of luminal B tumor patients. A: When defined by RT-qPCR, luminal B patients have a higher probability to remain free of distant metastasis when treated with docetaxel-FEC as compared to vinorelbine-FEC (89% vs. 78% respectively, HR 0.471; CI 0.263-0.843). B: When luminal B tumors are defined by IHC, survival differences are not observed between different treatment regimens (87% vs. 86%, HR 0.938 CI 0.474-1.856).
FIG. 13 depicts a Kaplan Meier analysis of distant metastasis free survival of patients with luminal B tumors, adjusted for number of metastatic lymph nodes, tumor size and histologic type by Cox Regression as specified in the SAP. A: By using the subtyping assay of the present invention the effect remains significant (90 vs. 78%, HR 0.409; CI 0.219-0.764). B: By contrast there is no effect when tumor subtyping occurs by IHC (89% vs. 85%, HR 0.674; CI 0.307-1.481).
as §1, §2

[8] = test system: HER2-positive tumors; assay: Kaplan Meier analysis of distant metastasis free survival, HER2-positive tumors; format: in vivo, human; details: for HR, DMFS: docetaxel vs vinorelbine; for distant metastasis free survival: 5 year time point
Procedure: FIG. 15 depicts a Kaplan Meier analysis of distant metastasis free survival of HER2-positive tumors.
as §1, §2

[9] = test system: TNBC tumor patients; assay: Kaplan Meier analysis of distant metastasis free survival, TNBC tumor patients; format: in vivo, human; details: for distant metastasis free survival: 5 year time point; for HR, DMFS: docetaxel vs vinorelbine
Excerpt: FIG. 19 depicts a Kaplan Meier analysis of distant metastasis free survival of TNBC tumor patients. […] B: IHC-defined TNBC patients show a weak, yet non-significant trend towards longer distant metastasis free survival (82% vs. 72%, HR 0.615; CI 0.284-1,333) when treated with docetaxel as compared to vinorelbine.
as §1, §2

[10] = FIG. 14A, HER2-positive defined by RT-qPCR
[11] = FIG. 14B, HER2-positive subtyped by IHC
[12] = FIG. 10B, luminal B defined by IHC, 5 year time point
[13] = FIG. 11A, luminal B by RT-qPCR, adjusted for tumor histologic type by Cox Regression, 5 years
[14] = FIG. 11B, luminal B by IHC, adjusted for tumor histologic type by Cox Regression, 5 years
[15] = FIG. 17A, luminal A defined by RT-qPCR
[16] = FIG. 17B, luminal A IHC-subtyped
[17] = FIG. 18A, TNBC defined by RT-qPCR
[18] = FIG. 16A, luminal A defined by RT-qPCR
[19] = FIG. 16B, luminal A defined by IHC
[20] = FIG. 15A, HER2-positive defined by method of the invention (RT-qPCR)
[21] = FIG. 15B, HER2-positive defined by IHC
[22] = FIG. 10A, luminal B defined by RT-qPCR, 5 year time point, combined with FEC
[23] = FIG. 12A, luminal B defined by RT-qPCR
[24] = FIG. 12B, luminal B defined by IHC

## CC(=O)O[C@@]12CO[C@@H]1C[C@H](O)[C@@]1(C)C(=O)[C@H](O)C3=C(C)[C@@H](OC(=O)[C@H](O)[C@@H](NC(=O)OC(C)(C)C)c4ccccc4)C[C@@](O)([C@@H](OC(=O)c4ccccc4)[C@H]21)C3(C)C [docetaxel]
[1]
  adverse effects: more commonly associated with adverse effects
[2]; FIG. 14A, HER2-positive by RT-qPCR
  HR, overall survival: 1.320
[2]; [10]
  overall survival: 87%
[2]; FIG. 14B, HER2-positive by IHC
  HR, overall survival: 1.175
[2]; [11]
  overall survival: 86%
[3]; [12]
  overall survival: 95%
[3]; FIG. 10B, luminal B defined by IHC
  HR, overall survival: 0.617
[3]; [13]
  overall survival: 97%
[3]; FIG. 11A, luminal B by RT-qPCR, adjusted for tumor histologic type
  HR, overall survival: 0.232
[3]; [14]
  overall survival: 96%
[3]; FIG. 11B, luminal B by IHC, adjusted for tumor histologic type
  HR, overall survival: 0.510
[3]; luminal B tumors classified by RT-qPCR, FIGS. 10 to 19, vs vinorelbine, combined with FEC
  benefit of docetaxel treatment: significant benefit
[4]; FIG. 17A, luminal A by RT-qPCR
  HR, DMFS: 0.826
[4]; [15]
  distant metastasis free survival: 92%
[4]; [16]
  distant metastasis free survival: 93%
[4]; FIG. 17B, luminal A by IHC
  HR, DMFS: 0.553
[5]; FIG. 18A, TNBC by RT-qPCR
  HR, overall survival: 0.949
[5]; [17]
  overall survival: 84%
[5]; FIG. 18B, TNBC by IHC
  HR, overall survival: 0.552
[5]; FIG. 18B, TNBC defined by IHC
  overall survival: 88%
[6]; FIG. 16A, luminal A by RT-qPCR
  HR, overall survival: 2.471
[6]; [18]
  overall survival: 95%
[6]; FIG. 16B, luminal A by IHC
  HR, overall survival: 0.443
[6]; [19]
  overall survival: 97%
[6]; luminal A tumors by RT-qPCR, effect does not reach statistical significance
  outcome compared to vinorelbine: even inferior to vinorelbine
[7]; FIG. 13A, luminal B by RT-qPCR, adjusted for metastatic lymph nodes, tumor size, histologic type, docetaxel vs vinorelbine
  HR, DMFS: 0.409
[7]; FIG. 13A, luminal B by RT-qPCR
  distant metastasis free survival: 90%
[7]; FIG. 13B, luminal B by IHC, adjusted for metastatic lymph nodes, tumor size, histologic type, docetaxel vs vinorelbine
  HR, DMFS: 0.674
[7]; FIG. 13B, luminal B by IHC
  distant metastasis free survival: 89%
[8]; FIG. 15A, HER2-positive by RT-qPCR
  HR, DMFS: 1.070
[8]; [20]
  distant metastasis free survival: 80%
[8]; FIG. 15B, HER2-positive by IHC
  HR, DMFS: 0.975
[8]; [21]
  distant metastasis free survival: 78%
[9]; FIG. 19A, RT-qPCR-defined TNBC
  distant metastasis free survival: 74%
[9]; FIG. 19A, TNBC by RT-qPCR
  HR, DMFS: 1.211
[9]; FIG. 19B, IHC-defined TNBC
  distant metastasis free survival: 82%
[9]; FIG. 19B, TNBC by IHC
  HR, DMFS: 0.615

## CCC1=C[C@@H]2CN(C1)Cc1c([nH]c3ccccc13)[C@@](C(=O)OC)(c1cc3c(cc1OC)N(C)[C@H]1[C@@](O)(C(=O)OC)[C@H](OC(C)=O)[C@]4(CC)C=CCN5CC[C@]31[C@@H]54)C2 [vinorelbine]
[2]; [10]
  overall survival: 91%
[2]; [11]
  overall survival: 89%
[3]; [13]
  overall survival: 88%
[3]; [14]
  overall survival: 92%
[4]; [15]
  distant metastasis free survival: 90%
[4]; [16]
  distant metastasis free survival: 88%
[5]; [17]
  overall survival: 83%
[5]; FIG. 18B, TNBC defined by IHC
  overall survival: 80%
[6]; [18]
  overall survival: 98%
[6]; [19]
  overall survival: 93%
[7]; FIG. 13A, luminal B by RT-qPCR
  distant metastasis free survival: 78%
[7]; FIG. 13B, luminal B by IHC
  distant metastasis free survival: 85%
[8]; [20]
  distant metastasis free survival: 81%
[8]; [21]
  distant metastasis free survival: 77%
[9]; FIG. 19A, RT-qPCR-defined TNBC
  distant metastasis free survival: 78%
[9]; FIG. 19B, IHC-defined TNBC
  distant metastasis free survival: 72%

## docetaxel
[3]; [22]
  overall survival: 97%
[3]; FIG. 10A, luminal B defined by RT-qPCR, docetaxel-FEC vs vinorelbine-FEC
  Hazard Ratio [HR], overall survival: 0.241
[7]; [23]
  distant metastasis free survival (DMFS): 89%
[7]; FIG. 12A, luminal B defined by RT-qPCR, docetaxel-FEC vs vinorelbine-FEC
  HR, DMFS: 0.471
[7]; [24]
  distant metastasis free survival (DMFS): 87%
[7]; FIG. 12B, luminal B defined by IHC, docetaxel-FEC vs vinorelbine-FEC
  HR, DMFS: 0.938

## vinorelbine
[3]; [22]
  overall survival: 89%
[3]; [12]
  overall survival: 92%
[7]; [23]
  distant metastasis free survival (DMFS): 78%
[7]; [24]
  distant metastasis free survival (DMFS): 86%
